The source of these data is patent US20060223837A1 (priority 2005, published 2006).

Molecules are shown by their SMILES.

One test has as its system cough. The settings on record: capsaicin and citric acid induced cough, guinea pig; cited from earlier work.
The test system of test [1] is dextran sulfate induced colitis. The settings on record: animal model; cited from earlier work.
Test [2] concerns CFA-induced mechanical hyperalgesia. To be noted: literature; cited from earlier work.
For another test, the system named is chronic arthritis. To be noted: tail vein model; cited from earlier work.
The next test concerns neuropathic pain. To be noted: chronic constriction injury rodent neuropathic pain model; cited from earlier work.
Test [3] deals with T1, human VR1 (Homo sapiens, UniProt Q8NER1).
T1 construct: expressed in transfected cells; host or cells: HEK293
Description: Human VR1 [3H]RTX binding assay. To be noted: for Ki: [3H]RTX binding, HEK293 membranes. The gist of the method: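 Inhibition of [3H]resiniferatoxin binding measured on HEK293-hVR1 membranes over 60 min at 37 C, pH 7.4 HEPES buffer containing BSA. Pellet radioactivity counted; 200 nM cold RTX gave nonspecific binding. % inhibition computed and Ki derived from duplicate measurements.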

The target of test [4] is T1, human VR1. The test is described as follows: Human VR1 functional assay (FLIPR intracellular Ca2+). It is filed as cell-based. The settings on record: for IC50: antagonism of capsaicin-induced Ca2+ increase, read-out: h IC50; for inhibition at 5 µM: read-out: h % I (5 μM); for inhibition at 1 µM: read-out: h % I (1 μM). The gist of the method: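 Read-out was Ca2+-dye fluorescence by FLIPR: compounds at varying concentrations were added to dye-loaded human VR1 HEK293 cells and monitored 5 min before capsaicin addition ([…], approx. EC80). Dose-response data, averaged over four wells, gave EC50 or IC50.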

Where [5] appears, read: inhibition of capsaicin response.
Where [6] appears, read: inhibition of [3H]RTX binding at 1 μM.

T1 sequence (Q8NER1 whole entry): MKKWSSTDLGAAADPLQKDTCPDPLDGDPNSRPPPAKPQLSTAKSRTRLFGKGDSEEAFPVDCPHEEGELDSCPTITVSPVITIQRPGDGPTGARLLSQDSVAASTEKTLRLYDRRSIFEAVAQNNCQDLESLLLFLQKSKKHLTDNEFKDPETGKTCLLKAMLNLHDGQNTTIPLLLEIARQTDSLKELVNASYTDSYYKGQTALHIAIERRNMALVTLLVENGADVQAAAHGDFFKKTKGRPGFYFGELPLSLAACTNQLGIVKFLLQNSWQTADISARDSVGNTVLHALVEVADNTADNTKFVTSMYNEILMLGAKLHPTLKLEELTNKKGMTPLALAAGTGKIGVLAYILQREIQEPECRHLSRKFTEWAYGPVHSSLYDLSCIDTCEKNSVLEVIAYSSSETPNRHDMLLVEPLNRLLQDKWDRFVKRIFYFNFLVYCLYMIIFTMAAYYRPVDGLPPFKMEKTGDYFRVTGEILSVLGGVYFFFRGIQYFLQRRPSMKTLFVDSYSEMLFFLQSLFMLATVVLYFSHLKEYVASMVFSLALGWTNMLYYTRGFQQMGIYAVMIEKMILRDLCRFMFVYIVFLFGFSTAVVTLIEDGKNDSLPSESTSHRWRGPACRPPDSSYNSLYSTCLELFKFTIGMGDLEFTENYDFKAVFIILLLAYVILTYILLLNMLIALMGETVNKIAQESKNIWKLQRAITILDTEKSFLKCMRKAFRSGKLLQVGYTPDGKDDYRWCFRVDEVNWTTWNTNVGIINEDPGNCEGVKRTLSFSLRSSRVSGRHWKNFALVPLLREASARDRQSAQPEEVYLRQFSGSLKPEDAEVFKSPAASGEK

Consider `C=C(C)[C@]12C[C@@H](C)[C@@]34O[C@](Cc5ccccc5)(O[C@@H]1[C@@H]3C=C(COC(=O)Cc1cc(I)c(O)c(OC)c1)C[C@]1(O)C(=O)C(C)=C[C@@H]41)O2` [iodo-resiniferatoxin], for which the antitussive action entry in the test on cough is reported as “antitussive action”.

Regarding `Nc1ccc(O)c(C(=O)O)c1` [5-ASA], the protection against colitis result in test [1] is recorded as “protects against dextran sulfate induced colitis”.

Regarding `O=C(O)Cc1ccccc1Nc1c(Cl)cccc1Cl` [diclofenac], the effect on hyperalgesia result in test [2] is listed as “reversed the hyperalgesic effect of zymosan”. Moreover, the pain relief result in the test with chronic arthritis is “partially effective”.

For the compound `CN1CC[C@]23c4c5ccc(O)c4O[C@H]2[C@@H](O)C=C[C@H]3[C@H]1C5` [morphine], the pain relief result in the test with chronic arthritis is on record as “fully relieved pain”.

Take `CC(C)(C)c1ccc(NC(=O)N2CCN(c3ncccc3Cl)CC2)cc1` [BCTC]: the effect on hyperalgesia result in test [2] is recorded as “reduced hyperalgesia”. Besides, the “effect on mechanical hyperalgesia and tactile allodynia” value in the test on neuropathic pain was “reduced mechanical hyperalgesia and tactile allodynia”.

In the case of `COc1cccc(C2(O)CCCCC2CN(C)C)c1` (stereo not shown) [tramadol], the pain relief entry in the test with chronic arthritis is on record as “fully relieved pain”.

`COc1ccc2c(c1)c(CC(=O)O)c(C)n2C(=O)c1ccc(Cl)cc1` [indomethacin]: the pain relief result in the test with chronic arthritis is given as “partially effective”.

Usually Ki stands for a dissociation constant, usually derived from enzyme kinetics or from competition with a known ligand. A lower Ki goes with a stronger hold on the target. In general, IC50 refers to the point on the concentration scale where inhibition reaches its midpoint. `CC(=O)Nc1cccc(-c2ncc(NC(=O)CCc3ccc(C(C)(C)C)cc3)cc2C)c1` [Cpd 216] came in with a Ki at human VR1 [3] of 70.4 nM. Also, at human VR1 [4], the IC50 stood at 76.2 nM. The inhibition at 5 µM at human VR1 [4] (setting [5]) turned out to be 99%.

With `CC(C)(C)c1ccc(CCC(=O)Nc2ccc(-c3ncccc3O)cc2)cc1` [Cpd 115], the “h Binding % I (1 μM)” value on human VR1 [3] (setting [6]) was 34%. Besides, the “% Response Relative to EC80 of Capsaicin (12 μM)” value at human VR1 [4] (agonist response, 12 μM) was 58%.

For `CC(=O)Nc1cccc(-c2ccc(NC(=O)CCc3ccc(C(C)(C)C)cc3)c(CO)c2)c1` [Cpd 70], on human VR1 [3] (setting [6]), the “h Binding % I (1 μM)” value is recorded as 1%. For the same compound, the “h % I (10 μM)” value at human VR1 [4] (inhibition of capsaicin response, 10 μM) was determined as 7%.

By EC50 is commonly meant the concentration that produces a half-maximal response. Take `CC(C)(C)c1ccc(CCC(=O)Nc2ccc(-c3cccc(O)c3)c(CO)c2)cc1` [Cpd 93]: at human VR1 [3], the inhibitory constant (Ki) came out at 34 nM. Moreover, the Emax at 6 µM on human VR1 [4] (agonist response, 6 μM, read-out: % Response Relative to EC80 of Capsaicin (6 μM)) was 153%. Besides, the 50% effective concentration (EC50) on human VR1 [4] (agonist-induced Ca2+ increase, read-out: h EC50) was found to be 65 nM. Also, the inhibition at 1 µM on human VR1 [4] (setting [5]) was 93%.

In the case of `CN(C)C(=O)c1cccc(-c2ccc(NC(=O)/C=C/c3ccc(C(C)(C)C)cc3)cc2)c1` [Cpd 36], the “h Binding % I (1 μM)” value on human VR1 [3] (setting [6]) was 16%. In addition, the “% Response Relative to EC80 of Capsaicin (12 μM)” value at human VR1 [4] (agonist response, 12 μM) is 55%.

As to `CC(C)(C)c1ccc(CCC(=O)Nc2ccc(-c3cccc(O)c3)c(F)c2)cc1` [Cpd 61], at human VR1 [3], the Ki was 53.3 nM. In addition, the inhibition at 1 µM on human VR1 [3] (inhibition of [3H]RTX binding at 1 μM, read-out: h Binding % I (1 μM)) was 96%. In addition, the Emax at 12 µM on human VR1 [4] (agonist response, 12 μM, read-out: % Response Relative to EC80 of Capsaicin (12 μM)) was 68%.

On to `O=C(CCc1ccc(C(F)(F)F)cc1)Nc1ccc(-n2cnc(Cl)c2Cl)c(C(F)(F)F)c1` [Cpd 218], for which the inhibition constant (Ki) on human VR1 [3] was 19.9 nM. Moreover, the concentration for half-maximal inhibition (IC50) on human VR1 [4] is 97.2 nM. Besides, the inhibition at 5 µM at human VR1 [4] (setting [5]) amounted to 101%.

For `Cc1cc(NC(=O)CCc2ccc(Cl)cc2)cnc1-n1cnc(Cl)c1Cl` [Cpd 234], on human VR1 [3], affinity was put at a Ki of 85.5 nM. Besides, on human VR1 [4], the concentration for half-maximal inhibition (IC50) was 290 nM. For the same compound, the inhibition at 1 µM on human VR1 [4] (setting [5]) came to 88%.
